# Results: ChEMBL document CHEMBL1201862, “PubChem BioAssay data set” (2004)
# The source made the active and inactive calls.
# How the values were obtained:
# [1] = target: T1, DNA repair protein RAD52 homolog (Homo sapiens, UniProt P43351); type: functional, biochemical
# T1 sequence (P43351 whole entry): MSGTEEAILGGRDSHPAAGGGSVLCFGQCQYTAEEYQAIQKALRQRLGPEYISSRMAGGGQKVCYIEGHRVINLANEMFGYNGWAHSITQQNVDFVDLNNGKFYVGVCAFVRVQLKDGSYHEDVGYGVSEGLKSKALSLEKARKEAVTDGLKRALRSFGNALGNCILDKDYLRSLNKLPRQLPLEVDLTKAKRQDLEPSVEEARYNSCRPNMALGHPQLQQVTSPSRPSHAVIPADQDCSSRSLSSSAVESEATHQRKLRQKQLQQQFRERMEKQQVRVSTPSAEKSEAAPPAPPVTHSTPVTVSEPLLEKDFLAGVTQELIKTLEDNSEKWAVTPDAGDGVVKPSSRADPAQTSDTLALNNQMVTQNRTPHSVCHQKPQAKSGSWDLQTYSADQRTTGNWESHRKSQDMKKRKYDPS
# [2] = target: T2, Alkaline phosphatase, tissue-nonspecific isozyme (Homo sapiens, UniProt P05186); test: TNAP enzyme inhibition by screening hits, dose response, selectivity assay for mouse IAP inhibitor project, biochemical, human TNAP, uHTS hits (AID 488906); type: functional
# T2 sequence (P05186 whole entry): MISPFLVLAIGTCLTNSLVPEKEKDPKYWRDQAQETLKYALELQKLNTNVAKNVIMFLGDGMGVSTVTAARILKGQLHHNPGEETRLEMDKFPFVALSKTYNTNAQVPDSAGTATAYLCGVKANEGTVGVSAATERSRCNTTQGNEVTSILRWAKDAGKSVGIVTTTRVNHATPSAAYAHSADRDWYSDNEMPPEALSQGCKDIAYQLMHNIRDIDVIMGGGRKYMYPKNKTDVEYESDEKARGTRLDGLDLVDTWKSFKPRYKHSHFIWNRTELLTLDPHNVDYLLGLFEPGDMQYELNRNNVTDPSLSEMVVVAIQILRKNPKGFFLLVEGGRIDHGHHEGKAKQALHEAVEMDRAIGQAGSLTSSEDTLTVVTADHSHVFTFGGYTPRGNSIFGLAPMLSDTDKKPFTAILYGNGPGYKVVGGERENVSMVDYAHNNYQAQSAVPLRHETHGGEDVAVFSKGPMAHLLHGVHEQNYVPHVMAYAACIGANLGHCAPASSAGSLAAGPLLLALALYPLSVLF
# [3] = target: T3, Ubiquitin-conjugating enzyme E2 N (Homo sapiens, UniProt P61088); type: functional
# T3 sequence (P61088 whole entry): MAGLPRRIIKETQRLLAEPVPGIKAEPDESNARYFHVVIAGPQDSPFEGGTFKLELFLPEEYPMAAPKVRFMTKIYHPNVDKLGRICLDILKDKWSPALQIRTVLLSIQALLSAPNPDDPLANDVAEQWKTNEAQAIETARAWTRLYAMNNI
# [4] = target: Intestinal-type alkaline phosphatase (Mus musculus, UniProt P24822); test: PubChem AID 488785; type: functional
# Chain of Intestinal-type alkaline phosphatase (Mus musculus, UniProt P24822) (P24822 whole entry): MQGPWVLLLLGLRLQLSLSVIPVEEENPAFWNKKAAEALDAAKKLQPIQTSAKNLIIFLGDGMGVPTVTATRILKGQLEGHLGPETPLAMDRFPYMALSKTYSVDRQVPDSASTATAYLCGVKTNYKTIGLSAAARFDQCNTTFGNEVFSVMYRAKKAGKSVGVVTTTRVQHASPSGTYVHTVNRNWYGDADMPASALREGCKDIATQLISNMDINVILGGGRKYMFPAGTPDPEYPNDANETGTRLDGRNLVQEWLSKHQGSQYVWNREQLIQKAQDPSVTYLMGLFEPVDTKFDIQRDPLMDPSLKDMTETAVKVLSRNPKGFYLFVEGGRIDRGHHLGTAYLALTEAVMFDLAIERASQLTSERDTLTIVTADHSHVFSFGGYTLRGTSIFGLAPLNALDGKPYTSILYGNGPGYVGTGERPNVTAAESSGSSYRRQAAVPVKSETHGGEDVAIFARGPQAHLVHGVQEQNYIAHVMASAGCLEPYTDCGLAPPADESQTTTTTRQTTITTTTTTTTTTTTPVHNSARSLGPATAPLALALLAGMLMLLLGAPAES
# HEK293 [5] = test: optical interference in Abeta FP readout, dose response, artefact control for IDE activator project, biochemical, fluorescence polarization (AID 588442); type: functional, cell-based; conditions: Homo sapiens
# Insulin-degrading enzyme [6] = target: T4, Insulin-degrading enzyme (Homo sapiens, UniProt P14735); test: cellular IDE activation of Abeta substrate cleavage – fluorescence polarization, HEK cells, dose response (AID 588439); type: functional, cell-based
# T4 sequence (P14735 whole entry): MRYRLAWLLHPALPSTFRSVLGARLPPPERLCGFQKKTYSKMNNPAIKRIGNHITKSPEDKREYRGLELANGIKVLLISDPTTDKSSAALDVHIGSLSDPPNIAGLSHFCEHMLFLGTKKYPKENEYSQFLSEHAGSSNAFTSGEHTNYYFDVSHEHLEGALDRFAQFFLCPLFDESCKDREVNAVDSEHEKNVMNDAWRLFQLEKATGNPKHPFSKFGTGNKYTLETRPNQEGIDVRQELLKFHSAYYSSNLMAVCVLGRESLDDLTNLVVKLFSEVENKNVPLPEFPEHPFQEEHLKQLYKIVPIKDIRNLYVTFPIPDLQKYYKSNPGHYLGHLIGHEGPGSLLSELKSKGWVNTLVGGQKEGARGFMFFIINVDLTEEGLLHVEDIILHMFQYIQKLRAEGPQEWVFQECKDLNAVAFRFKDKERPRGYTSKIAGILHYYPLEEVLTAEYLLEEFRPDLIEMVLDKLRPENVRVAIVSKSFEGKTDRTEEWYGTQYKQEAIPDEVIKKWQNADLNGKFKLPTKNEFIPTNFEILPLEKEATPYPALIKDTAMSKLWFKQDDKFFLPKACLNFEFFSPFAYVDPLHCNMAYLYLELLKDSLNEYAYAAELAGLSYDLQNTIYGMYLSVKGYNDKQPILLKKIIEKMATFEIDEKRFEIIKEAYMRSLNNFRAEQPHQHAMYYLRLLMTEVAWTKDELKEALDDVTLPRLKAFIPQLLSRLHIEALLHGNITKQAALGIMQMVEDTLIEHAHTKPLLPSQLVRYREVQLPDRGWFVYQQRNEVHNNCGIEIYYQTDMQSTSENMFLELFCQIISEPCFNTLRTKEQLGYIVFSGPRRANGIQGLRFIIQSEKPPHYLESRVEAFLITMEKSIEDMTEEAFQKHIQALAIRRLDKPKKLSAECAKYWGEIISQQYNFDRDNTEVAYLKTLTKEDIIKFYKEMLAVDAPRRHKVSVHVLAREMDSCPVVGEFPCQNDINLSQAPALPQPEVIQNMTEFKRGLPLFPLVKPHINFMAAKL
# Insulin-degrading enzyme [7] = target: T4, Insulin-degrading enzyme; test: recombinant IDE activation, cell-free – biochemical, fluorescence polarization, counter-screen for IDE activator project, dose response (AID 588681)
# [8] = viability of uninfected HEp-2 cells – cell-based, HTS, cytotoxicity control for RSV inhibitor project, dose response (AID 2410); type: functional; conditions: human respiratory syncytial virus
# [9] = target: T3, Ubiquitin-conjugating enzyme E2 N; type: functional; remark: listed apart in the source
# Bcl-2-related protein A1 = target: T5, Bcl-2-related protein A1 (Mus musculus, UniProt Q07440); type: functional;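 note: confirmatory dose–response counterscreen on Bfl-1, used to check hits from a UBC13 polyubiquitin inhibitor campaign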
# T5 sequence (Q07440 whole entry): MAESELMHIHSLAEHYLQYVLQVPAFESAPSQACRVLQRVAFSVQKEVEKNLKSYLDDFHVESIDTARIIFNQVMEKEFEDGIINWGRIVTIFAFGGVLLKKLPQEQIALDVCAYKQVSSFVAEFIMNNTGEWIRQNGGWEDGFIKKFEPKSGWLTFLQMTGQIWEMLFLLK
# [10] = target: Intestinal-type alkaline phosphatase (Homo sapiens, UniProt P09923); test: inhibition of human intestinal alkaline phosphatase – biochemical, dose response (AID 488876); type: functional
# Chain of Intestinal-type alkaline phosphatase (Homo sapiens, UniProt P09923) (P09923 whole entry): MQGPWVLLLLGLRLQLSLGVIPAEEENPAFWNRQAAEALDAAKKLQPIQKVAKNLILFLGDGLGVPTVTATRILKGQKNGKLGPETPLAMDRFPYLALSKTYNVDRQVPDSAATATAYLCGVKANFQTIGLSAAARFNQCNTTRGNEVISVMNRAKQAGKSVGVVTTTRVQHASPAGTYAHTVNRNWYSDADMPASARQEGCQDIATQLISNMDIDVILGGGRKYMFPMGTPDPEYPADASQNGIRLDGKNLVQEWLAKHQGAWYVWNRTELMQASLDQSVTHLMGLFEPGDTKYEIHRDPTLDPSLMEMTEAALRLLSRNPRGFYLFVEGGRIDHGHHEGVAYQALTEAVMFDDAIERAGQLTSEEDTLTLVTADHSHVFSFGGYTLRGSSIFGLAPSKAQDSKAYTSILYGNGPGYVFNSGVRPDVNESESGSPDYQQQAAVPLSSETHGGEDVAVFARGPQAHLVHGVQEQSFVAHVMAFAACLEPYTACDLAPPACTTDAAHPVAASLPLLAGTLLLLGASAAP
# HEK293 [11] = test: membrane integrity loss in HEK cells – cell-based, fluorescence, cytotoxicity control for IDE activator project, dose response (AID 588440); type: functional, Homo sapiens; conditions: Homo sapiens, HEK293;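 note: cytotoxicity by LDH release measuring loss of membrane integrity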
# [12] = target: T6, Adenosylmethionine-8-amino-7-oxononanoate aminotransferase (Mycobacterium tuberculosis, UniProt P9WQ81); test: Mycobacterium tuberculosis BioA enzyme inhibitor Measured in Biochemical System Using Plate Reader - 2163-02_Inhibitor_Dose_CherryPick_Activity.; type: functional, Mycobacterium tuberculosis UT205
# T6 sequence (P9WQ81 whole entry): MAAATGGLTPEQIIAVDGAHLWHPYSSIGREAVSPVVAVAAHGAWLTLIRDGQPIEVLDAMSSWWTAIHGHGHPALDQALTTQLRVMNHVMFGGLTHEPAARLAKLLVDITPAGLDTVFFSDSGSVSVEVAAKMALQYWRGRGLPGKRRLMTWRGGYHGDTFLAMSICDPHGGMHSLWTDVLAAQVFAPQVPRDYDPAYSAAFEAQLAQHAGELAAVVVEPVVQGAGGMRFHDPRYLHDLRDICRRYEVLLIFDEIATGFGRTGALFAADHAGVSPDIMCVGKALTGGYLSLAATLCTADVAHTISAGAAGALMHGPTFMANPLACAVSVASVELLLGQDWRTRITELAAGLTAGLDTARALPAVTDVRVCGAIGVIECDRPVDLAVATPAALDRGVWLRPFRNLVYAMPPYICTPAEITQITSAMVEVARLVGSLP
# P388/ADR = test: cells; type: functional; conditions: Mus musculus
# P388 = test: cells; type: functional; conditions: Mus musculus
# [13] = Fluorescence-based cell-based high throughput dose response assay for inhibitors of the interaction of nucleotide-binding oligomerization domain containing 2 (NOD2) and the receptor-interacting serine-threonine kinase 2 (RIPK2).; type: functional; conditions: Homo sapiens
# SN12K1 = test: cells; type: functional; conditions: Homo sapiens
# [14] = target: T7, Long-chain-fatty-acid--AMP ligase FadD28 (Mycobacterium tuberculosis, UniProt P9WQ59); test: Fluorescence polarization aasay to screen for inhibitors that compete for the binding of FadD28 to a bisubstrate Measured in Biochemical System Using Plate Reader - 2147-01_Inhibitor_Dose_CherryPick_Activity.; type: functional, Mycobacterium tuberculosis H37Rv
# T7 sequence (P9WQ59 whole entry): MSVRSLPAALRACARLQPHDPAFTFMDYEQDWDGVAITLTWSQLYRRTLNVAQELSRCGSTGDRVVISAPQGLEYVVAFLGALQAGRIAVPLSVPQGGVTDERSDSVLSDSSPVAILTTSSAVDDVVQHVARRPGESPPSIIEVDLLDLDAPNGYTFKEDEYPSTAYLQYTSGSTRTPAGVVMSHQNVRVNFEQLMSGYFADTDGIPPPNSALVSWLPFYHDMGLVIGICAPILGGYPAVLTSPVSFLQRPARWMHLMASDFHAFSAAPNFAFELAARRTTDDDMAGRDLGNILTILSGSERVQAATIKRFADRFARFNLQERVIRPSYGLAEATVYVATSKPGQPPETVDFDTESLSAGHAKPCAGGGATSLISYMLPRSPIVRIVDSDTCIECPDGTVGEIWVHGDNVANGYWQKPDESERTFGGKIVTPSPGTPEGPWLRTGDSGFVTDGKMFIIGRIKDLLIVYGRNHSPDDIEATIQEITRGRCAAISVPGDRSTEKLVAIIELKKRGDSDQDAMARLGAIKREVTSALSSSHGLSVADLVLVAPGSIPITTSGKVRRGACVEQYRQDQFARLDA
# [15] = target: Nuclear receptor subfamily 5 group A member 2 (Homo sapiens, UniProt O00482); type: functional, cell-based;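 note: HEK293T cells transfected with LRH-1 and a StAR promoter luciferase reporter; potency for inhibitors that lower LRH-1 driven reporter light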
# Chain of Nuclear receptor subfamily 5 group A member 2 (O00482 whole entry): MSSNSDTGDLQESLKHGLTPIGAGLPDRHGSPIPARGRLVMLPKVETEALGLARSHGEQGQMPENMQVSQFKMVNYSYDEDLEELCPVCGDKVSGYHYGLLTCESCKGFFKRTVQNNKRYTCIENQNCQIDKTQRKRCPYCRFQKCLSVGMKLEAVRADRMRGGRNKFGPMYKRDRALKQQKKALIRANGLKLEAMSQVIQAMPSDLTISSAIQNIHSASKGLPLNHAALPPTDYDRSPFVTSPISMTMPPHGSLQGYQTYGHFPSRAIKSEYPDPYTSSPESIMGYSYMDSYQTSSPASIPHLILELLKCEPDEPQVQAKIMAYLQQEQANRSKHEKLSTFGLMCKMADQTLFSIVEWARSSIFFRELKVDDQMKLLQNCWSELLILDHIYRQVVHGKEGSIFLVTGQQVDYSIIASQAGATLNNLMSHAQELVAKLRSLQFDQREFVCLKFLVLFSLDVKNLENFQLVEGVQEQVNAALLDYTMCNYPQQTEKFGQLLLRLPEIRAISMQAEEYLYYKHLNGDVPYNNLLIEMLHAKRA
# Steroidogenic factor 1 = Steroidogenic factor 1 (Homo sapiens, UniProt Q13285); test: Counterscreen for inverse agonists of the liver receptor homolog-1 (LRH-1; NR5A2): Luminescence-based cell-based high throughput dose response assay to identify inverse agonists of the Steroidogenic Factor 1 Nuclear Receptor (SF1; NR5A1).; type: functional
# Chain of Steroidogenic factor 1 (Q13285 whole entry): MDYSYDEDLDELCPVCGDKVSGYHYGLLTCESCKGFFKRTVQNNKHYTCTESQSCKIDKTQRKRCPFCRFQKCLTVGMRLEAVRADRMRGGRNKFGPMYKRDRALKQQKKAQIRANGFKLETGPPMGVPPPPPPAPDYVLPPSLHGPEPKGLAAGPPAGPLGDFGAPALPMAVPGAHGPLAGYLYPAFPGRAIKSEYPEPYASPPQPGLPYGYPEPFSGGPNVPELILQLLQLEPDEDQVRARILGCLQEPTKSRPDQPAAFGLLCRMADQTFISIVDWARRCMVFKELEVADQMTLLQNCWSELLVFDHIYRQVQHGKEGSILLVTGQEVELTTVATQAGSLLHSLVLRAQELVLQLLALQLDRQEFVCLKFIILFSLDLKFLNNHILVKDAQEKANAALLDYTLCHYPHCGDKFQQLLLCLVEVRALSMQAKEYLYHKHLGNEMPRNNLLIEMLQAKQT
compound,measurement,setting,value
COCCN1CCn2c(nc3cc(Nc4nnc(C)c5ccccc45)ccc32)C1,AC50,[1],11.9 µM (active)
C#CCOCCOCCOCCNc1nc(N2CCN(C(=O)CCCCCCCCCCNC(=O)[C@@H](CCSC)n3cc(CCO)nn3)CC2)nc(N2CCN(C(=O)CCCCCCCCCCNC(=O)[C@H]([C@@H](C)CC)n3cc(CCCCN=C(N)N)nn3)CC2)n1,IC50,[2],58.7 µM (active)
same,IC50,[3],3.81 µM (active)
same,IC50,[4],1.66 µM (active)
same,EC50,HEK293 [5],> 56 µM (inactive)
same,EC50,Insulin-degrading enzyme [6],> 2.03 µM (active)
same,EC50,Insulin-degrading enzyme [7],2.36 µM (active)
same,CC50,[8],16 µM (active)
same,IC50,[9],5.82 µM (active)
same,IC50,Bcl-2-related protein A1,5.51 µM (active)
same,IC50,[10],> 100 µM (inactive)
same,IC50,HEK293 [11],4.44 µM (active)
COc1cccc(-c2ccc3c(c2)[C@H]2[C@H](CCN2C(=O)C2CCC2)[C@@H](CO)N3)c1,AC50,[12],7.13 µM (active)
C#CCOCCOCCOCCNc1nc(N2CCN(C(=O)CCCCCCCCCCNC(=O)[C@H](CCCCN)n3cc(C)nn3)CC2)nc(N2CCN(C(=O)CCCCCCCCCCNC(=O)[C@@H]([C@H](C)O)n3cc(C)nn3)CC2)n1,IC50,[3],6.61 µM (active)
same,EC50,HEK293 [5],> 54.7 µM (inactive)
same,EC50,Insulin-degrading enzyme [6],> 54.7 µM (inactive)
same,EC50,Insulin-degrading enzyme [7],> 54.7 µM (inactive)
same,IC50,[9],11.1 µM (active)
same,IC50,Bcl-2-related protein A1,> 20 µM (inactive)
same,IC50,HEK293 [11],11.4 µM (inactive)
CC(=O)OC1C(O)C(C)OC(OC2C(OC(=O)C3CCC4C(C3)OC3(CC(OC(=O)/C=C/c5ccccc5)C(C)CO3)C43CO3)OC(C)C(O)C2OC(C)=O)C1O (configuration not stated),GI50,P388/ADR,> 1.75 µM (inactive)
same,GI50,P388,0.0895 µM (active)
same,IC50,[13],49.8 µM (inactive)
same,GI50,SN12K1,0.0172 µM (active)
COC(=O)c1ccc(NC(S)=NC2c3ccccc3CC2O)cc1 (configuration not stated),AC50,[14],26.6 µM (active)
COc1ccc(NC(=O)COC(=O)c2cc(S(=O)(=O)N3CCCC3)ccc2O)cc1,IC50,[15],35.9 µM (inactive)
same,IC50,Steroidogenic factor 1,11.2 µM (inactive)
